From ChEMBL document CHEMBL5678816, “A Next-Generation TRK Kinase Inhibitor Overcomes Acquired Resistance to Prior TRK Kinase Inhibition in Patients with TRK Fusion-Positive Solid Tumors” (Cancer Discov, 2017)
Calls of active or inactive are those of the source. The rule behind the calls is not given here.

Assays:
[1] = target: Ribosomal protein S6 kinase alpha-3 (Homo sapiens) (UniProt P51812); assay: Inhibition of Rsk2 (unknown origin) at 1 uM in presence of ATP relative to control; values are per cent of control
[2] = target: Mitogen-activated protein kinase 11 (Homo sapiens) (UniProt Q15759); assay: Inhibition of p38beta (unknown origin) at 1 uM in presence of ATP relative to control; values are per cent of control
NCI-H441 = assay: Inhibition of cell proliferation in human NCI-H441 cells upto 10 umol/L incubated for 72 hrs by DAPI staining based analysis; type: functional; conditions: dose <= 10.0 µmol/L
[3] = Cmin in pediatric patient with recurrent ETV6-NTRK3-rearranged infantile fibrosarcoma at 60 mg administered twice a day as liquid formulation for 8 day and measured 12 hrs post dose by LC-MS/MS analysis; type: ADME; conditions: human, in vivo, read-out: Cmin
NIH3T3 [4] = assay: In vivo inhibition of […] in nu/nu NCr mouse implanted with mouse NIH3T3 cells harboring extracellular domain deleted […] assessed as reduction in […] phosphorylation at 60 mg/kg, po administered once daily for 3 days and measured after 2 hrs post last dose by ELISA; type: functional, organism-based; conditions: time 3.0 day
[5] = target: NUAK family SNF1-like kinase 1 (Homo sapiens) (UniProt O60285); assay: Inhibition of ARK5 (unknown origin) at 1 uM in presence of ATP relative to control; values are per cent of control
A 172 = assay: Inhibition of cell proliferation in human A-172 cells upto 10 umol/L incubated for 72 hrs by DAPI staining based analysis; type: functional; conditions: dose <= 10.0 µmol/L
[6] = target: Dual specificity mitogen-activated protein kinase kinase 6 (Homo sapiens) (UniProt P52564); assay: Inhibition of MKK6 (unknown origin) at 1 uM in presence of ATP relative to control; values are per cent of control
[7] = target: Maternal embryonic leucine zipper kinase (Homo sapiens) (UniProt Q14680); assay: Inhibition of MELK (unknown origin) at 1 uM in presence of ATP relative to control; values are per cent of control
[8] = target: Protein kinase C beta type (Homo sapiens) (UniProt P05771); assay: Inhibition of PKCbetal (unknown origin) at 1 uM in presence of ATP relative to control; values are per cent of control
CAL-62 = assay: Inhibition of cell proliferation in human CAL-62 cells upto 10 umol/L incubated for 72 hrs by DAPI staining based analysis; type: functional; conditions: dose <= 10.0 µmol/L
[9] = target: Serine/threonine-protein kinase 24 (Homo sapiens) (UniProt Q9Y6E0); assay: Inhibition of MST3 (unknown origin) at 1 uM in presence of ATP relative to control; values are per cent of control
KM12 = assay: Antitumor activity against human KM12 cells harboring TPM3-TRKA fusion protein xenografted in nu/nu NCr mouse assessed as inhibition of tumor growth at 30 to 300 mg/kg, po administered twice daily for 11 days; type: functional, organism-based; conditions: dose 30-300 mg/kg, time 11.0 day
[10] = target: Mast/stem cell growth factor receptor Kit (Homo sapiens) (UniProt P10721); assay: Inhibition of KIT (unknown origin) at 1 uM in presence of ATP relative to control; values are per cent of control
[11] = Inhibition of N-terminal 3FLAG-tagged ETV6-TRKC G623R mutant (unknown origin) expressed in NIH3T3 cells assessed as ERK1/2 phosphorylation incubated for 1 hrs by flow cytometric analysis; type: cell-based, Homo sapiens
NIH3T3 [12] = assay: In vivo inhibition of […] in nu/nu NCr mouse implanted with mouse NIH3T3 cells harboring extracellular domain deleted […] assessed as reduction in […] phosphorylation at 10 to 100 mg/kg, po administered twice daily for 3 days and measured after 2 hrs post last dose by ELISA; type: functional, organism-based; conditions: dose 10-100 mg/kg, time 3.0 day
[13] = target: Tyrosine-protein kinase Blk (Homo sapiens) (UniProt P51451); assay: Inhibition of BLK (unknown origin) at 1 uM in presence of ATP relative to control; values are per cent of control
[14] = target: Phosphorylase b kinase gamma catalytic chain, liver/testis isoform (Homo sapiens) (UniProt P15735); assay: Inhibition of PhKgamma2 (unknown origin) at 1 uM in presence of ATP relative to control; values are per cent of control
BT-474 = assay: Inhibition of cell proliferation in human BT-474 cells upto 10 umol/L incubated for 72 hrs by DAPI staining based analysis; type: functional; conditions: dose <= 10.0 µmol/L
[15] = target: Tyrosine-protein kinase Fyn (Homo sapiens) (UniProt P06241); assay: Inhibition of Fyn (unknown origin) at 1 uM in presence of ATP relative to control; values are per cent of control
[16] = target: MAP kinase-activated protein kinase 3 (Homo sapiens) (UniProt Q16644); assay: Inhibition of MAPKAP-K3 (unknown origin) at 1 uM in presence of ATP relative to control; values are per cent of control
C32 = assay: Inhibition of cell proliferation in human C32 cells upto 10 umol/L incubated for 72 hrs by DAPI staining based analysis; type: functional; conditions: dose <= 10.0 µmol/L
[17] = target: Ephrin type-A receptor 1 (Homo sapiens) (UniProt P21709); assay: Inhibition of EphA1 (unknown origin) at 1 uM in presence of ATP relative to control; values are per cent of control
[18] = AUC in adult patient with recurrent LMNA-NTRK1 rearranged colorectal cancer at 100 mg administered twice a day as powder-in-capsule or liquid formulation for 22 day by LC-MS/MS analysis; type: ADME; conditions: human, in vivo, po
[19] = target: Interleukin-1 receptor-associated kinase 4 (Homo sapiens) (UniProt Q9NWZ3); assay: Inhibition of IRAK4 (unknown origin) at 1 uM in presence of ATP relative to control; values are per cent of control
[20] = target: Fibroblast growth factor receptor 1 (Homo sapiens) (UniProt P11362); assay: Inhibition of FGFR1 (unknown origin) at 1 uM in presence of ATP relative to control; values are per cent of control
[21] = target: Rho-associated protein kinase 2 (Homo sapiens) (UniProt O75116); assay: Inhibition of ROCK-II (unknown origin) at 1 uM in presence of ATP relative to control; values are per cent of control
[22] = target: Ribosomal protein S6 kinase alpha-4 (Homo sapiens) (UniProt O75676); assay: Inhibition of MSK2 (unknown origin) at 1 uM in presence of ATP relative to control; values are per cent of control
Sequence of Ribosomal protein S6 kinase alpha-4 (Homo sapiens) (O75676 whole entry, looked up): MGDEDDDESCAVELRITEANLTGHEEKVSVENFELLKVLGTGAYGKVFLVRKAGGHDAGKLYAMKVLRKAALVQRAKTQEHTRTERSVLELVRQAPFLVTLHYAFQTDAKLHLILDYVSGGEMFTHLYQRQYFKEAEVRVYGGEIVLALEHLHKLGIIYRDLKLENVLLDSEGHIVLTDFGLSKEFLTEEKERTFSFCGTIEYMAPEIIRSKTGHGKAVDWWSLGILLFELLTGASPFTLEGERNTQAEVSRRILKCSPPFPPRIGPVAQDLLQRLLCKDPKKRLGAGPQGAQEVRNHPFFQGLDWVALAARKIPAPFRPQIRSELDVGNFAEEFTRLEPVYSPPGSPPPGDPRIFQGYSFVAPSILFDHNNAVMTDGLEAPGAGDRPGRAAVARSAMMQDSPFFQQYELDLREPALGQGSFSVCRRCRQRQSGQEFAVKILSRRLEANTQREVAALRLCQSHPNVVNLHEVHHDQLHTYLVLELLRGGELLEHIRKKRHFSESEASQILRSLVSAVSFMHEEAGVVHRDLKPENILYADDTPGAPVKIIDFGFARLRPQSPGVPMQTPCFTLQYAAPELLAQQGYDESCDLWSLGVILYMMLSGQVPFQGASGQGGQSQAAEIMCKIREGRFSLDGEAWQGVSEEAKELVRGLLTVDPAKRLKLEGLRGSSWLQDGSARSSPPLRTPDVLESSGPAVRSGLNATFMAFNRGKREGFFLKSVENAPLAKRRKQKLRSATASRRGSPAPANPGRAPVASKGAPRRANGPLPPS

Sequence of Mast/stem cell growth factor receptor Kit (Homo sapiens) (P10721 whole entry): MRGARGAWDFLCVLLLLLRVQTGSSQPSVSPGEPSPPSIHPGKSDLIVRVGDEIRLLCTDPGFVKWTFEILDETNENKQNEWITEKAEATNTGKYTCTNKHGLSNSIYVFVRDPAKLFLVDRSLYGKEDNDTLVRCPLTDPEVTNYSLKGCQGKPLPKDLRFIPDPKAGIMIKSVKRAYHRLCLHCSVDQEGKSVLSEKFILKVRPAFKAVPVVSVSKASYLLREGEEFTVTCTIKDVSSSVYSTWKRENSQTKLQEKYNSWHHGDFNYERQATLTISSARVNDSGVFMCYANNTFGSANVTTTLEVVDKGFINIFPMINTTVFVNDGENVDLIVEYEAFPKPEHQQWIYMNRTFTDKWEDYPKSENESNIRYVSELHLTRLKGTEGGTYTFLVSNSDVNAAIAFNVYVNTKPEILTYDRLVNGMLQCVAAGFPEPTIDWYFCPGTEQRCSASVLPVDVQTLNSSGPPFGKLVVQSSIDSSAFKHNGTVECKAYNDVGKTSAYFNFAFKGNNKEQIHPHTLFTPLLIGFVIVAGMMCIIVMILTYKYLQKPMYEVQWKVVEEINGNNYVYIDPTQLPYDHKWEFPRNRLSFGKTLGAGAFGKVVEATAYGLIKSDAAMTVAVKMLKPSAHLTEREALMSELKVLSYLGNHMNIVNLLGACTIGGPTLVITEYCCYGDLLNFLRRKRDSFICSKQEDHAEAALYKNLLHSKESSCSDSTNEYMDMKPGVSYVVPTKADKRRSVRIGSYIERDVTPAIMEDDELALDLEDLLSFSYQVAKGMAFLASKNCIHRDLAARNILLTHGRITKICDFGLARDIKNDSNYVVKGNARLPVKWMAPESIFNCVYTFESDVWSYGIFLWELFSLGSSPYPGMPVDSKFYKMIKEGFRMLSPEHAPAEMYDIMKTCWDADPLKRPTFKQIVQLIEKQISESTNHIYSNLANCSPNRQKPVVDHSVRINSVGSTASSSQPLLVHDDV
Sequence of MAP kinase-activated protein kinase 3 (Homo sapiens) (Q16644 whole entry, looked up): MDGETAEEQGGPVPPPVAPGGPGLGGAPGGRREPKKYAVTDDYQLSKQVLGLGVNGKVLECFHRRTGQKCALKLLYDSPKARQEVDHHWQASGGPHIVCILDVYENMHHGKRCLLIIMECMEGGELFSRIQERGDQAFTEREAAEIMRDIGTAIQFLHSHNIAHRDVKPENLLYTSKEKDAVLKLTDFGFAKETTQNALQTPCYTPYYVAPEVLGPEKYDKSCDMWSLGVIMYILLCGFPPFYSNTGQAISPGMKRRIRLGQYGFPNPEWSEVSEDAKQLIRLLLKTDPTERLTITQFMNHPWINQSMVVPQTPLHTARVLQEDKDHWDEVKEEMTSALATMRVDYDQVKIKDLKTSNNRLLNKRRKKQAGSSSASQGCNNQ
Sequence of Maternal embryonic leucine zipper kinase (Homo sapiens) (Q14680 whole entry, looked up): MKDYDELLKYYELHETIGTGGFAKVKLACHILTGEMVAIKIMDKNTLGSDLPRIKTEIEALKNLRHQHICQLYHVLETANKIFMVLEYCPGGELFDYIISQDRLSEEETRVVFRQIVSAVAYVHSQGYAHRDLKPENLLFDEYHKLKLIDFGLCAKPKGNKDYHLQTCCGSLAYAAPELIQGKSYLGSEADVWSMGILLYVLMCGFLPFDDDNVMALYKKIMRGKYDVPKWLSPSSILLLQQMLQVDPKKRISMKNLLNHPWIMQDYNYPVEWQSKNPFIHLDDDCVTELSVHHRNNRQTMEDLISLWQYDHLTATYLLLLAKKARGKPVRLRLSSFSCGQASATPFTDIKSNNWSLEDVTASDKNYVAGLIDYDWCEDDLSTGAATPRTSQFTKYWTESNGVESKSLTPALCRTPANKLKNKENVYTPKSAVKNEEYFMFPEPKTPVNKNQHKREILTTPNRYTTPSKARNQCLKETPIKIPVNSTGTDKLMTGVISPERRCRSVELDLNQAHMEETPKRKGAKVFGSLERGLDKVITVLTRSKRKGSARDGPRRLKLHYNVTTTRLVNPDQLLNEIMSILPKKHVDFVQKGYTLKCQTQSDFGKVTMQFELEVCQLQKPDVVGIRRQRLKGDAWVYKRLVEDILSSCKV
Sequence of Interleukin-1 receptor-associated kinase 4 (Homo sapiens) (Q9NWZ3 whole entry): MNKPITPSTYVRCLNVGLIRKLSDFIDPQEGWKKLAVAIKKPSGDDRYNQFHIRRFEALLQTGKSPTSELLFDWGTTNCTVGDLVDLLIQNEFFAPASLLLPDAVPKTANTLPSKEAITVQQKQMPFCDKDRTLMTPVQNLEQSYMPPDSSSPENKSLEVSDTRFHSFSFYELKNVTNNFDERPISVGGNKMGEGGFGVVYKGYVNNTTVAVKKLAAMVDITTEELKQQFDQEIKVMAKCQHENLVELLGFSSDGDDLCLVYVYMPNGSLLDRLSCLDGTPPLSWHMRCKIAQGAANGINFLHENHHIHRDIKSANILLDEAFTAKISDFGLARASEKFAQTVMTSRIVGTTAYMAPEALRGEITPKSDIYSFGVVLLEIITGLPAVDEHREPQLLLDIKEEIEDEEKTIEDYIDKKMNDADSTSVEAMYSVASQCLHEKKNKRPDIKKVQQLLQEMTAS
Sequence of Tyrosine-protein kinase Fyn (Homo sapiens) (P06241 2-537 limits assumed): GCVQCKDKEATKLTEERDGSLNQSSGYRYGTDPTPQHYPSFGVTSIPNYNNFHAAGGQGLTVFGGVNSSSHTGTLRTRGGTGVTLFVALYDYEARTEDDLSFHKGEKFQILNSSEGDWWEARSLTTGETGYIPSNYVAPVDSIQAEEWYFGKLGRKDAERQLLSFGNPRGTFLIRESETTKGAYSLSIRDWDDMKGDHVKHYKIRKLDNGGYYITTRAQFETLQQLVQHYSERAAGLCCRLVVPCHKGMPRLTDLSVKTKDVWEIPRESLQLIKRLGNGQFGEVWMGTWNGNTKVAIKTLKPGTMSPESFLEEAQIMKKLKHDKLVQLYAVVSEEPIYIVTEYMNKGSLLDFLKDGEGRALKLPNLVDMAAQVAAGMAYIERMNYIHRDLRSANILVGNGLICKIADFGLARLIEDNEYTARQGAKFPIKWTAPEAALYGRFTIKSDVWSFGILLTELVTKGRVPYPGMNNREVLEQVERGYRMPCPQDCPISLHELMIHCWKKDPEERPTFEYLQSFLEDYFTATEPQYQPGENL
Sequence of Mitogen-activated protein kinase 11 (Homo sapiens) (Q15759 whole entry): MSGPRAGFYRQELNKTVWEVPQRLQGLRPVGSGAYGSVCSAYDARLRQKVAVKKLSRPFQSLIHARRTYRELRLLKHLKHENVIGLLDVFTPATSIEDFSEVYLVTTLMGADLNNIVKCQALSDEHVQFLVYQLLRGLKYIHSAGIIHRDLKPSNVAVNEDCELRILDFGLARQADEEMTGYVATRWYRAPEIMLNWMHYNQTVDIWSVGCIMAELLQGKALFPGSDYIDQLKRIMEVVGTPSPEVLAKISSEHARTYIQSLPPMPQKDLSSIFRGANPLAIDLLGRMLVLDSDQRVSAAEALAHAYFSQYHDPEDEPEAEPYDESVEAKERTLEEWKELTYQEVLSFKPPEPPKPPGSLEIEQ
Sequence of Ribosomal protein S6 kinase alpha-3 (Homo sapiens) (P51812 whole entry): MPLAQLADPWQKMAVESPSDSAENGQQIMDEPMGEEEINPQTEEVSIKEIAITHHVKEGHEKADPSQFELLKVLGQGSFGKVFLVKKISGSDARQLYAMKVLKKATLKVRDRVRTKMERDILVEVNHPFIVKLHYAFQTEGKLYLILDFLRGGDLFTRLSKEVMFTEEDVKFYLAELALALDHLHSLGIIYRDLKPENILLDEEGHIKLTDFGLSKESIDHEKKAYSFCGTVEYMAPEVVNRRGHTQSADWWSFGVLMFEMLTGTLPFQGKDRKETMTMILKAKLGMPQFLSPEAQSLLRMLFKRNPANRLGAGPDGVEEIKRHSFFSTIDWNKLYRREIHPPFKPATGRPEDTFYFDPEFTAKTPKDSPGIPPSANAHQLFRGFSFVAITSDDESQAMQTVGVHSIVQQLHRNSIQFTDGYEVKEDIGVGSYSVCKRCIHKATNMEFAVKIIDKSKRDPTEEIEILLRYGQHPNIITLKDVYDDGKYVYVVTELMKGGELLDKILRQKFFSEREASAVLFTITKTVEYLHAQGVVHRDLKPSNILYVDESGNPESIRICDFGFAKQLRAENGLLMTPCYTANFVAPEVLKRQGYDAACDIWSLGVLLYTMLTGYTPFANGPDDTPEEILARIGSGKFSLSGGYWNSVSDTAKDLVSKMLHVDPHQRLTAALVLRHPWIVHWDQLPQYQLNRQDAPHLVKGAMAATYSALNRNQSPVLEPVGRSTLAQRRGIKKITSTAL

## C[C@@H]1CCc2ncc(F)cc2[C@H]2CCCN2c2ccn3ncc(c3n2)C(=O)N1 [SELITRECTINIB]
[1]
  residual activity: 134%
[2]
  residual activity: 123%
NCI-H441
  inhibition: inactive
[3]
  concentration at 204 h: < 1 ng/mL
NIH3T3 [4]
  inhibition: Active
[5]
  residual activity: 98%
A 172
  inhibition: inactive
[6]
  residual activity: 100%
[7]
  residual activity: 104%
[8]
  residual activity: 108%
CAL-62
  inhibition: inactive
[9]
  residual activity: 125%
KM12
  Activity: Active
[10]
  residual activity: 100%
[11]
  IC50: 45.5 nM
NIH3T3 [12]
  inhibition: Active
[13]
  residual activity: 108%
[14]
  residual activity: 104%
BT-474
  inhibition: inactive
[15]
  residual activity: 90.5%
[16]
  residual activity: 102%
C32
  inhibition: inactive
[17]
  residual activity: 74%
[18]
  AUC at 528 h: 3870 ng·h/mL
[19]
  residual activity: 95%
[20]
  residual activity: 91.5%
[21]
  residual activity: 105%
[22]
  residual activity: 115%
